Where two headings read alike, the source gives them in different places.
Assays:
[1] = tested on: thyroid hormone receptors (TRs); test: CAT reporter gene activation in cultured cells; format: cell-based; conditions: U-937
Protocol: To test TR activation of transcription in a cellular environment, TR ligands are assayed for their ability to activate a reporter gene, chloramphenicol transferase (“CAT”), which has a TR DNA binding sequence operatively linked to it. Either GC or […] cells (available from the ATCC) can be used, respectively). In such assays, a TR ligand crosses the cell membrane, binds to the TR, and activates the TR, which in turn activates gene transcription of the CAT by binding the TR DNA binding region upstream of the CAT gene. The effective concentration for half maximal gene activation (EC50) is determined by assaying CAT gene activation at various concentrations as described herein and in the literature.
After electroporation, cells are pooled in growth medium (RPMI with 10% charcoal-treated, hormone stripped, newborn bovine serum), plated in 6-well dishes and treated with either ethanol or hormone. CAT activity is determined 24 hours later as described D. C. Leitman, R. C.

TR binding to RIP-140 = test: RIP-140 coactivation assay (35S-RIP-140 binding to liganded TR); format: biochemical; set-up: key: +: RIP-140 Binding; −: RIP-140 Binding
Protocol: To test the ability of TR ligands to activate the binding of TR to the nuclear activation protein RIP-140 (a nuclear protein that can bind to nuclear receptors, such as the estrogen receptor), a TR ligand is liganded to TR and then incubated with RIP-140 as described in V. Cavailles, et al., EMBO J., 14(15):3741-3751 (1995), which is incorporated by reference herein. In this assay, 35S-RIP-140 protein binds to liganded TR but not unliganded TR.

thyroid receptor (TR) = test: Receptor binding assay with TR from rat liver nuclei and [125I]T3; conditions: TR from rat liver nuclei, 1 nM [125I]T3, overnight at 4° C.; read-out: App.Kd
Protocol: Baxter, and […]. […] The apparent Kd's are calculated using the method described by […]

TR-α = molecular target: T1, TR-α (Homo sapiens, UniProt P10827); test: Binding to TR isoform TR-α
T1 sequence (P10827 1-410 isoform P10827-2): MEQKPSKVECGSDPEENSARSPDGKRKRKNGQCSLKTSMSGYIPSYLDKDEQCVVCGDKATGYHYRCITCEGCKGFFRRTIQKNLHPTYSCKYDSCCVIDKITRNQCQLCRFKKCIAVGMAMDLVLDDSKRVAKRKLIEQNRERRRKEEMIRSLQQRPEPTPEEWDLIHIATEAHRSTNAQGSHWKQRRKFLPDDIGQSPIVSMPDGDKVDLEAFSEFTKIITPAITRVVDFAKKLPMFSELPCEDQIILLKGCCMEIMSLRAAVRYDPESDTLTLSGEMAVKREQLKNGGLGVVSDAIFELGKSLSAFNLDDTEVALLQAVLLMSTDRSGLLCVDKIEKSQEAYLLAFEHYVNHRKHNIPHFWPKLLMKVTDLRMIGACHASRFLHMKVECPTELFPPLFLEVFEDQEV
Text: Assays for determining selective binding to the TR-α or TR-β LBD can include reporter assays, as described herein.

TR-β = molecular target: T2, TR-β (Homo sapiens, UniProt P10828); test: Binding to TR isoform TR-β
T2 sequence (P10828 1-461): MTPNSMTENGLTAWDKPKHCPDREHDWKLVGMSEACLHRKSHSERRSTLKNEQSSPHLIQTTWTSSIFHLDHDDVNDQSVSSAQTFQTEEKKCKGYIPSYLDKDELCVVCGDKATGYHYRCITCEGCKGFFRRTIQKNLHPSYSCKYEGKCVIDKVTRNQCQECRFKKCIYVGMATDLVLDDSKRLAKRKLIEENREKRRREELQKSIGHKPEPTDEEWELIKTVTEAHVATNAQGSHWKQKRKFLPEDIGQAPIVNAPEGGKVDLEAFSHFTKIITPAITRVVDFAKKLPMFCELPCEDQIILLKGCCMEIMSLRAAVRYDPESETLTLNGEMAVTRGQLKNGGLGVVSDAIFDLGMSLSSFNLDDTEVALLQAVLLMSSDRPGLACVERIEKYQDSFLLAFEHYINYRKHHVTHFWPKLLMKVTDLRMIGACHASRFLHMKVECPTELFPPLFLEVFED
Protocol: 3,5-dibromo-4-(3′,5′-diisopropyl-4′-hydroxyphenoxy)Benzoic Acid is a TR-α Selective Synthetic Ligand. [drawing 4] 3,5-dibromo-4-(3′,5′-diisopropyl-4′-hydroxyphenoxy)benzoic acid (Compound 11), the structure of which is drawn above, is assayed for binding to the two different isoforms of the TR, TR-α and TR-β. […] Assays for determining selective binding to the TR-α or TR-β LBD can include reporter assays, as described herein. See also Hollenberg, et al., J. Biol. Chem., (1995) 270(24):14274-14280.

TR [2] = conditions: cited from earlier work
TR [3] = test: Receptor binding affinity stated in the structure discussion
human TR-β LBD = molecular target: T3, human TR-β LBD (Homo sapiens, UniProt P10828); test: Competition for [125I]T3 binding, native TR-β; conditions: read-out: Binding Affinity, Native TR-β
T3 sequence (P10828 217-461 limits assumed): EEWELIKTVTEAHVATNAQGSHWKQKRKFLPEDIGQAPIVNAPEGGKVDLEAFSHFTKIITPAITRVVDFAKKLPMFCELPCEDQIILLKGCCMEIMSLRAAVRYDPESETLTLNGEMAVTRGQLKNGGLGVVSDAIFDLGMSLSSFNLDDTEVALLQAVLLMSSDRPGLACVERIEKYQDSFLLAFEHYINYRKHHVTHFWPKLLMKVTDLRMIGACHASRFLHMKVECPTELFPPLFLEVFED
Protocol: Assays are performed in duplicate.
The following assays residues involved in selective binding among TR isoforms.

human TR-α LBD = molecular target: T4, human TR-α LBD (Homo sapiens, UniProt P10827); test: Competition for [125I]T3 binding, native TR-α; conditions: read-out: Binding Affinity, Native TR-α; competition with 1 nM [125I]T3
T4 sequence (P10827 163-410 isoform P10827-2 limits assumed): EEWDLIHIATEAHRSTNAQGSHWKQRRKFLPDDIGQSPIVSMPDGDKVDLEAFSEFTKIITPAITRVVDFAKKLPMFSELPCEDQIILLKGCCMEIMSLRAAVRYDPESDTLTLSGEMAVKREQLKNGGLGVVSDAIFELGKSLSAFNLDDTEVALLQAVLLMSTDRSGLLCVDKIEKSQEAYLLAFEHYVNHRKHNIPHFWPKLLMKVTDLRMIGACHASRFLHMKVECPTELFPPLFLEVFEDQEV

[4] = half maximal CAT gene activation, GC or U937 cells, read-out: EC50

Structure (SMILES) | EC50 [1, 4] [nM] | Coactivation Assay RIP-140 (TR binding to RIP-140) | Kd (thyroid receptor (TR)) [nM] | further results
O=C(N[C@@H](Cc1cc(I)c(Oc2ccc(O)c(I)c2)c(I)c1)C(=O)O)C(c1ccccc1)c1ccccc1 [TS1] | 100 | + | 4 | –
CC(C)c1cc(Oc2c(Br)cc(C(=O)O)cc2Br)cc(C(C)C)c1O [Compound 11, 3,5-dibromo-4-(3′,5′-diisopropyl-4′-hydroxyphenoxy)benzoic acid] | – | – | – | IC50 (TR-α): 1600 nM; IC50 (TR-β): 910 nM
CC(C)(C)OC(=O)N[C@@H](Cc1cc(I)c(Oc2ccc(O)c(I)c2)c(I)c1)C(=O)O [TS4] | – | + | 8 | –
O=C(O)Cc1cc(I)c(Oc2ccc(O)c(I)c2)c(I)c1 [Triac, 3,5,3′-triiodothyroacetic acid] | – | – | – | binding affinity compared with T3 (TR [2]): equal to that of T3; affinity for the alpha versus beta isoforms (TR [3]): equal affinity
Cc1cc(C[C@H](N)C(=O)O)cc(C)c1Oc1ccc(O)c(C(C)C)c1 [Dimit, 3,5-dimethyl-3′-isopropylthyronine] | – | – | – | Kd (human TR-β LBD): 8 nM; Kd (human TR-α LBD): 6 nM
CC(C)(C)OC(=O)NC(Cc1cc(I)c(Oc2ccc(O)cc2)c(I)c1)C(=O)O (stereo not shown) [TS5] | 1000 | + | 220 | –
N[C@@H](Cc1cc(I)c(Oc2cc(I)c(O)c(I)c2)c(I)c1)C(=O)O [Compound T4, 3,5,3′,5′-tetraiodo-L-thyronine, reference compound] | 1 | + | – | affinity for the receptor as % of the affinity of T3 (TR [2]): 2%
CC(C)c1cc(Oc2c(Br)cc(C[C@H](N)C(=O)O)cc2Br)ccc1O [IpBr2, 3,5-dibromo-3′-isopropylthyronine] | – | – | – | Kd (human TR-α LBD): 0.017 nM
N[C@@H](Cc1cc(I)c(Oc2ccc(O)c(I)c2)c(I)c1)C(=O)O [Compound T3, 3,5,3′-triiodothyronine, reference compound] | – | + | – | EC50 [1]: 0.1 nM
O=C(N[C@@H](Cc1cc(I)c(Oc2ccc(O)c(I)c2)c(I)c1)C(=O)O)OCC1c2ccccc2-c2ccccc21 [TS3] | 10 | + | 4 | –
CC(C)c1cc(Oc2c(I)cc(CC(N)C(=O)O)cc2I)ccc1O (stereo not shown) [TS9, reference compound] | – | + | – | –
CCCCCCCCCCCCCCCCC(=O)N[C@@H](Cc1cc(I)c(Oc2ccc(O)c(I)c2)c(I)c1)C(=O)O [TS2] | – | – | 1400 | –

Source: US20070027215A1, “Nuclear receptor ligands and ligand binding domains” (The Regents of the University of California, priority 1995, published 2007)
